Measurements taken from publication PMC8624133, “10th Trends in Medical Mycology Held on 8 to 11 October 2021, Aberdeen, Scotland, Organized by the European Confederation of Medical Mycology (ECMM)” (Journal of Fungi, 2021).
In brackets after ≈: the same amount, converted by molar mass. Several values for one entry are separate records, joined by “and”; a condition that tells them apart may be missing. Equal entries are not always repeated. Residues, ends and D or L forms follow the SMILES beside them. *: point of attachment. βNA = c1ccc2cc(N*)ccc2c1

Tests used:
[1] = tested on: azole-resistant A. fumigatus SS clinical strains; experiment: EUCAST E.DEF 9.3.2; format: cell-based; conditions: Aspergillus fumigatus
ISV blood levels, HPLC = format: in vivo, human; conditions: for samples with level <1 mg/L: ICU
Method: Materials & Methods: ISV levels are routinely tested in our centre HPLC method. The lowest limit of quantification was set at 0.15 mg/L. ISV blood levels obtained between January 2017 and May 2021 were analysed and compared between those obtained from patients in ICU vs. others. Chi-square/Fisher’s exact test and Mann-Whitney test were used for categorical and continuous variables, respectively. Levels of ISV <1 mg/L were defined as low.

[2] = Triazole drug levels in ABPA patients with asthma; format: in vivo, human; conditions: 452 patients, Oct 2009 to March 2021
Source text: Materials & Methods: This was a retrospective single-centre cohort study evaluating longitudinal outcomes in non-cystic fibrosis (CF) ABPA patients with underlying chronic lung disease (asthma), and description of treatment approaches. Statistical Analysis System (SAS) programming was used for data integration from multiple hospital electronic systems, for patient identification and data analysis. Criteria for inclusion were patients with a background of asthma, serum Total IgE >1000 IU/mL and a positive Aspergillus IgE, with or without a positive culture for A. fumigatus from a respiratory sample. Data collected included demographics, lung function severity, disease activity serological markers (Aspergillus IgE, Aspergillus IgG, Total IgE) and triazole levels. In this study the impact of fungal therapy on disease outcomes was assessed.

[3] = tested on: C. auris Isolate B and Isolate C; experiment: microbe, parasite or virus in culture; format: cell-based, Candida auris; conditions: for reduction in MIC: Isolate C with ERG11 WT in place of K143R
A. flavus complex = conditions: n = 6, EUCAST clinical breakpoints
A. fumigatus complex = conditions: share of isolates, n = 59, EUCAST clinical breakpoints
A. nidulans complex = conditions: all isolates, n = 2
[4] = tested on: A. fumigatus veterinary isolates; experiment: EUCAST microdilution of veterinary isolates; format: cell-based, Aspergillus fumigatus
Method: All have been confirmed as A. fumigatus by MALDI-TOF MS using the BCCM/IHEM database. The antifungal susceptibility was evaluated using the microdilution EUCAST method. Cyp51A gene sequencing has been performed on all resistant isolates.

McLDM-F5-CPR = experiment: microbe, parasite or virus in culture; format: cell-based, Saccharomyces cerevisiae AD2Δgal; conditions: Saccharomyces cerevisiae, read-out: mean MIC
R. delemar = experiment: Murine mucormycosis, immunosuppressed mice infected intratracheally; format: in vivo, ICR mice; conditions: n = 20/arm
Method: (§1) Methods & Materials: In vitro susceptibility was conducted by the CLSI M38 method using a clinical isolate of Rhizopus delemar (a common cause of mucormycosis). ICR mice were immunosuppressed with cyclophosphamide and cortisone acetate on days −2, +3, and +8, relative to infection with intratracheally instilled R. delemar. […] Mice survival through Day +21 served as the primary endpoint.

R. delemar 99–880 = experiment: CLSI M38 in vitro susceptibility; format: cell-based, Rhizopus delemar; conditions: Rhizopus delemar, read-out: MIC at 100% inhibition of growth
Method: as §1

[5] = tested on: Rasamsonia argillacea species complex; experiment: Antifungal susceptibility testing; format: cell-based; conditions: sputum isolate of a CF patient
[6] = tested on: A. fumigatus clinical isolates; experiment: Susceptibility of clinical isolates from CF patients; conditions: all 10 clinical isolates
C. tropicalis = experiment: ARIA surveillance, CLSI M27 broth microdilution; format: cell-based, Candida tropicalis
Method: Materials & Methods: Isolates (n = 730) were collected and re-identified by MALDI-TOF or molecular methods. […] Percentage susceptibility (%S) or wild-type (%WT) were calculated according to CLSI breakpoints (CLSI supplement M60) or epidemiological cut-off values (CLSI supplement M59), respectively.

[7] = tested on: C. auris clinical strains; experiment: organism not typed; format: cell-based, Candida auris; conditions: range, 78 strains from patients with COVID-19
A. niger complex = experiment: EUCAST E.Def 9.3.2 susceptibility, CPA isolates; format: cell-based, Aspergillus niger complex; conditions: n = 7, ECOFFs
[8] = tested on: Exophiala phaeomuriformis; experiment: MIC, CLSI M27-A3; format: cell-based; conditions: read-out: MIC values
Method: Materials & Methods: The aviation kerosone samples came from an aviation company in Porto Alegre, state of Rio Grande do Sul, Brazil. The fungi isolation was carried out using the modified ASTM D6974-09 Standard. In this procedure, 500 mL kerosene samples were filtered, in triplicate, under aseptic conditions, under vacuum, using a 0.22 μm membrane (Millipore). After filtering, the membranes were deposited in potato dextrose agar culture medium. The plates were incubated in an oven at 30 °C for seven days. After this period, the colonies were isolated in new culture media for purification of the isolates. Molecular identification was performed through the sequencing of ITS DNA regions. The profile of sensitivity to clinical antifungals was assessed following protocols M27-A3 of the Clinical and Laboratory Standards Institute (CLSI).

[9] = tested on: A. fumigatus (resistant to posaconazole strain v79-63); experiment: Neutropenic animal model of invasive pulmonary aspergillosis; format: in vivo, CD-1 mice
McLDM strains = experiment: EUCAST MIC, S. cerevisiae overexpressing M. circinelloides LDM, resistance phenotypes; format: cell-based, Saccharomyces cerevisiae
Rhizopus arrhizus = experiment: E test; format: cell-based
A. fumigatus strains = experiment: EUCAST E.DEF 9.3.2 broth microdilution; format: cell-based, Aspergillus fumigatus; parameters: MIC Range: unit not given beside the values; MIC50 / MIC90: unit not given here
Method: Methods: The research was conducted on 29 A. fumigatus strains. Minimum inhibitory concentrations (MIC) were detected by broth microdilution method (BM) following EUCAST definitive document E.DEF 9.3.2 and E-test in accordance with manufacturer instructions.

Scedosporium apiospermum = experiment: EUCAST reference method MIC; format: cell-based
Method: Case presentation: A patient presented with a bursitis of their left elbow. Six months before they were treated with lymphodepleting chemotherapy directly followed by B-cell associated CD19-specific chimeric antigen receptor (CAR) T cell therapy for recurrence of follicular lymphoma. They were considered immunocompromised, with total neutrophils and lymphocytes slightly below normal levels, absent B-cells, and a treatment associated persistent hypogammaglobulinaemia. Four weeks before presentation at our hospital they contacted their GP because of swelling and pain of their left elbow. Their GP aspirated fluid from their elbow, injected steroids and started antibiotics, but now there was recurrence of swelling and pain. Bursitis without arthritis was diagnosed by a rheumatologist and the bursa was surgically opened and drained, relieving pus. The patient was started on oral flucloxacillin and sent home. Two days later the culture of the pus from the bursa grew white colonies on a Sabouraud dextrose agar plate, showing long conidophores with large oval conidia on microscopy. […] Over the next few weeks the bursitis symptoms diminished. […] Voriconazole is considered first line treatment for Scedosporium infections. […] Eight weeks later there were no signs of bursitis and posaconazole was discontinued.

[10] = tested on: Phaeoacremonium parasiticum; experiment: Antifungal susceptibility testing; format: cell-based
Method: Results: Cultures for bacteria were sterile. Culture on Sabouraud was positive after 5 days of incubation, showing slow growing and initially white colonies. […] Its identification was performed by sequencing the internal transcribed spacer (ITS) region of ribosomal DNA, being the isolate identified as Phaeoacremonium parasiticum (100% homology).

eumycetoma = conditions: in vivo; cited from earlier work
Source text: Mycetoma: Mycetoma is a chronic, progressive, implantation inflammatory disease characterised by severe and stigmatising deformities, disability, and high morbidity. The disease is caused by fungi (eumycetoma) and several Actinomycetales members (actinomycetoma). Its estimative global burden is 9000 cases. There are no robust epidemiological studies on mycetoma in SA, but it is tconsidered the third most prevalent endemic IM in SA, especially among low socioeconomic adult males living in rural areas from Argentina, Brazil, Colombia and Venezuela, where the principal agents are Madurella spp. a ...

[11] = tested on: A. fumigatus strain v79-63; experiment: EUCAST MIC of the infecting strain; format: cell-based; conditions: Aspergillus fumigatus, V7963
[12] = tested on: M. circinelloides and R. microsporus; experiment: Chequerboard dilution with posaconazole; format: cell-based, Mucor circinelloides, Rhizopus microsporus; conditions: PaβN + posaconazole; five ATCC or clinical isolates
Method: (§2) Methods: The inhibitory effect of PaβN on transporters activity was assessed by measuring the efflux of their fluorescent substrate rhodamine 6G following glucose injection. The interaction of PaβN and posaconazole was assessed by the chequerboard dilution method in order to determine the fractional inhibitory concentration index (FICI).

[13] = tested on: drug transporters of M. circinelloides and R. microsporus; experiment: Rhodamine 6G efflux following glucose injection; format: cell-based, Mucor circinelloides, Rhizopus microsporus
Method: as §2

[14] = strain from pleural fluid of an ICU patient, no mutations in cyp51A
[15] = two strains from a cystic fibrosis patient, TR34/L98H

C[C@@H](c1nc(-c2ccc(C#N)cc2)cs1)[C@](O)(Cn1cncn1)c1cc(F)ccc1F [isavuconazole]
MIC [1, 14]: 1 mg/L (≈ 2.29 µM)
MIC [1, 15]: 8 mg/L (≈ 18.3 µM)
median blood level (ISV blood levels, HPLC; 265 samples, 63 patients, first two months): 3.3 mg/L
blood level range (ISV blood levels, HPLC; ICU patients): 0 to 8.48 µg/mL
median blood level (ISV blood levels, HPLC; ICU patients): 1.95 mg/L
samples with level <1 mg/L (ISV blood levels, HPLC; during renal replacement therapy, 7/24): 29.2%
samples with level <1 mg/L (ISV blood levels, HPLC; not receiving RRT, 7/46): 15.2%
blood level range (ISV blood levels, HPLC; all samples): 0 to 14.52 µg/mL
blood level range (ISV blood levels, HPLC; non-ICU patients): 0 to 14.52 µg/mL
median blood level (ISV blood levels, HPLC; non-ICU patients): 4.1 mg/L
median trough drug level [2]: 3.29 mg/L
change of MIC [3]: largely unchanged
reduction in MIC [3]: 2 fold
isolates resistant (A. flavus complex): 17%
Resistance (A. fumigatus complex): 5%
resistance of isolates (A. nidulans complex): resistant
isolates in the area of technical uncertainty (ATU) [4]: 27%
resistance of isolates [4]: No resistance
MIC (McLDM-F5-CPR): 4 mg/L (≈ 9.14 µM)

CC[C@@H]([C@H](C)O)n1ncn(-c2ccc(N3CCN(c4ccc(OC[C@@H]5CO[C@@](Cn6cncn6)(c6ccc(F)cc6F)C5)cc4)CC3)cc2)c1=O [posaconazole]
MIC [1, 14]: 0.5 mg/L (≈ 0.713 µM)
MIC [1, 15]: 1 mg/L (≈ 1.43 µM)
% Survival (R. delemar; through Day +21, placebo 0): 25%
Median Survival (R. delemar; treatment from 24 h post infection, IBREXA 30 mg/kg po BID 7 d, LAMB 10 mg/kg iv 4 d, POSA 30 mg/kg po QD 7 d, placebo 8): 13 days
MIC (R. delemar 99–880): 0.5 mg/L (≈ 0.713 µM)
median trough drug level [2]: 1.39 mg/L
minimal inhibitory concentrations (MIC) [5]: high minimal inhibitory concentrations
change of MIC [3]: largely unchanged
reduction in MIC [3]: 2 fold
susceptibility [6]: susceptible
WT (C. tropicalis; Argentina): 57.1%
WT (C. tropicalis; Australia, Panama, USA and Taiwan): > 90%
WT (C. tropicalis; Italy): 47.4%
MIC [7]: 0.06 to 8 mg/L (≈ 0.0856 to 11.4 µM)
Resistance (A. fumigatus complex): 5%
Non-wild type isolates (A. niger complex): 43%
MIC [8]: 0.125 mg/L (≈ 0.178 µM)
log10CFU/lung ([9]; mean ± SEM, 3 animals treated for 3 d, placebo 6.1 ± 0.08): 5.2 ± 0.48 log10CFU/lung
survival rates ([9]; survival recorded until 15 d, IL-18 10 ng/mouse intranasally daily -2 d till +7 d, posaconazole 16 mg/kg/day, groups of 10, control 20%): 56%
MICs compared to AD2Δ (McLDM strains): not affected
isolates in the area of technical uncertainty (ATU) [4]: 60%
MIC (Rhizopus arrhizus): > 32 mg/L
MIC50 (A. fumigatus strains; 28 h): 0.25
MIC90 (A. fumigatus strains; 28 h): 0.5
MIC Range (A. fumigatus strains; 28 h, 29 strains): 0.125–2
MIC50 (A. fumigatus strains; 48 h): 0.25
MIC90 (A. fumigatus strains; 48 h): 0.5
MIC Range (A. fumigatus strains; 48 h): 0.125–4
MIC (Scedosporium apiospermum; first isolate from bursa pus): 1 mg/L (≈ 1.43 µM)
MIC (Scedosporium apiospermum; isolate two months later, under posaconazole): 2 mg/L (≈ 2.85 µM)
minimal inhibitory concentrations (MIC), in words [10]: low
Cure rate (eumycetoma): 25–35%
MIC [11]: > 16 mg/L

NC(N)=NCCC[C@H](NC(=O)[C@@H](N)Cc1ccccc1)C(=O)Nc1ccc2ccccc2c1 [PaβN, Phenylalanine-Arginine Beta-Naphthylamide] (H-Phe-Arg-βNA)
FICI [12]: 0.5 and 0.5 to 0.6
efflux of rhodamine 6G [13]: decrease the efflux of rhodamine 6G
